Assays:
RSV [1] = assay: XTT assay, RSV-infected Hep-2 cells; format: cell-based, Respiratory Syncytial Virus (RSV); conditions: Table 2, Examples 75 to 82 and 125 to 184, Hep-2 cells infected with RSV, 6 days at 37° C.
Procedure: Examples 75 to 82 and 125 to 184 were tested according to the protocol described below.
(§1) The inner 60 wells of 96 well tissue culture plates were seeded with Hep-2 cells at 4×10^4 cells/well for compound activity and toxicity studies in 100 μl of medium and incubated at 37° C. overnight or until nearing confluency.
(§2) Cells were infected with 25 μl RSV previously titrated to give 80% cell kill. To each well 25 μM of test compound were added. The final DMSO concentration was 0.5%. Some 200 μl of sterile distilled water were added to the outer wells of the plate and incubated at 37° C. for 6 days. Some 0.25 μl/ml PMS were added to stock […] solution, final conc. 25 μM PMS. Then 25 μl warmed XTT/PMS solution were added to each well and incubated for 1 hour at 37° C.
Maximum OD450nm reading (uninfected, untreated control cells) corresponded to 100% inhibition. Minimum OD450nm readings (infected control cells) corresponded to 0% inhibition. Log 10 concentration was plotted against OD450nm and IC50 values were calculated from either reading 50% value from graph or using regression analysis.

Hep-2 cells = assay: Toxicity studies (XTT), Hep-2 cells; format: cell-based; parameters: TC50 (6d): unit not given beside the values; conditions: for TC50 (2d): Table 2, Examples 75 to 82 and 125 to 184, 2d; for TC50 (6d): Table 2, Examples 75 to 82 and 125 to 184, 6d, in µM
Procedure: as §1
as §2, with “Some 200 μl of sterile distilled water were added to the outer wells of the plate and incubated at 37° C. for 6 days.” left out

RSV [2] = assay: XTT assay, RSV-infected Vero cells; format: cell-based, Respiratory Syncytial Virus (RSV); conditions: human respiratory syncytial virus, Vero, 144 h, read-out: XTT IC50 (uM), Table 2, Examples 83 to 124; Vero cells infected with RSV, m.o.i.≈0.2, 6 days at 33° C.
How it was run: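 Vero cells infected with RSV at m.o.i.≈0.2 in presence of serially ½-log diluted compound, incubated 6 days at 33 °C. Viability read by XTT/PMS (5 h, 37 °C) at OD450; uninfected untreated cells = 100%, infected controls = 0% inhibition. IC50 from graph or regression; parallel uninfected plates for toxicity.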

Vero cells = assay: Simultaneous toxicity investigation (XTT), Vero cells; format: cell-based; parameters: unit not given here
Procedure: The inner 60 wells of 96 well tissue culture plates were seeded with Vero cells at 3×10^4 cells/well (1×10^4 cells/well for toxicity studies) in 100 or 150 μl of medium and incubated at 37° C. overnight or until nearing confluency. For primary screen, 25 μl compounds were added directly to 100 μl medium in single wells to duplicate plates. A third plate was prepared for simultaneous toxicity investigation.
For follow-up investigation, 70 μl of compound in duplicate wells were added directly to culture medium at 3.2× final concentration and ½ log serially diluted down columns of plate. A duplicate plate was prepared for simultaneous toxicity investigation.
Cells were infected with 25 μl RSV to give m.o.i.≈0.2. […] Some 0.25 μl/ml PMS were added to stock XTT solution, final conc. […]. Then 25 μl warmed XTT/PMS solution were added to each well and incubated for 5 hours at 37° C. Plates were shaken (DynaTech Vari-Shaker) vigorously for 10 mins and allowed to cool for 15 mins before sealing. Absorbance at 450 nm was measured and data analysed using Microsoft Excel software.

[3] = human respiratory syncytial virus, 144 h

CCCCNC(=O)NC1N=C(c2ccccc2)c2ccccc2NC1=O (stereo not drawn) [Example 151, 1-Butyl-3-(2-oxo-5-phenyl-2,3-dihydro-1H-benzo[e][1,4]diazepin-3-yl)-urea]
IC50 (RSV [1]; [3]): 1.5 µM | TC50 (2d) (Hep-2 cells): > 100 µM | TC50 (6d) (Hep-2 cells): >100

CCCOc1ccccc1C(=O)NC1N=C(c2ccccc2)c2ccccc2NC1=O (stereo not drawn) [Example 137, N-(2-Oxo-5-phenyl-2,3-dihydro-1H-benzo[e][1,4]diazepin-3-yl)-2-propoxy-benzamide]
IC50 (RSV [1]; [3]): 8.3 µM | TC50 (6d) (Hep-2 cells): >50

O=C(NC1N=C(c2ccccc2)c2ccccc2NC1=O)c1ccccc1I (stereo not drawn) [Example 138, 2-Iodo-N-(2-oxo-5-phenyl-2,3-dihydro-1H-benzo[e][1,4]diazepin-3-yl)-benzamide]
IC50 (RSV [1]; [3]): 8.3 µM | TC50 (6d) (Hep-2 cells): 51

1-(2-Oxo-5-phenyl-2,3-dihydro-1H-benzo[e][1,4]diazepin-3-yl)-3-m-tolyl-urea [Example 141]
IC50 (RSV [1]): 4.3 µM | TC50 (6d) (Hep-2 cells): >50

O=C(NC1N=C(c2ccccc2)c2ccccc2NC1=O)c1cn[nH]c1 (stereo not drawn) [Example 173, 1H-Pyrazole-4-carboxylic acid (2-oxo-5-phenyl-2,3-dihydro-1H-benzo[e][1,4]diazepin-3-yl)-amide]
IC50 (RSV [1]; [3]): 8.3 µM | TC50 (6d) (Hep-2 cells): 95

N-[5-(3-Chloro-phenyl)-2-oxo-5-phenyl-2,3-dihydro-1H-benzo[e][1,4]diazepin-3-yl]isonicotinamide [Example 160]
IC50 (RSV [1]): 10 µM | TC50 (2d) (Hep-2 cells): > 100 µM | TC50 (6d) (Hep-2 cells): >100

N-[5-(3-Chloro-phenyl)-2-oxo-5-phenyl-2,3-dihydro-1H-benzo[e][1,4]diazepin-3-yl]-isobutyramide [Example 155]
IC50 (RSV [1]): 6 µM | TC50 (2d) (Hep-2 cells): > 100 µM | TC50 (6d) (Hep-2 cells): >100

Piperidine-1-carboxylic acid [5-(3-chloro-phenyl)-2-oxo-5-phenyl-2,3-dihydro-1H-benzo[e][1,4]diazepin-3-yl]-amide [Example 159]
IC50 (RSV [1]): 2 µM | TC50 (2d) (Hep-2 cells): > 100 µM | TC50 (6d) (Hep-2 cells): >100

COC(=O)c1ccc(C(=O)NC2N=C(c3ccccc3)c3ccccc3NC2=O)c(OC)c1 (stereo not drawn) [Example 139, 3-Methoxy-N-(2-oxo-5-phenyl-2,3-dihydro-H-benzo[e][1,4]diazepin-3-yl)-terephthalamic acid methyl ester]
IC50 (RSV [1]): 9.2 µM | TC50 (6d) (Hep-2 cells): 98

Piperidine-4-carboxylic acid [5-(3-methoxy-phenyl)-2-oxo-5-phenyl-2,3-dihydro-1H-benzo[e][1,4]diazepin-3-yl]-amide [Example 167]
IC50 (RSV [1]): 9 µM | TC50 (2d) (Hep-2 cells): > 100 µM | TC50 (6d) (Hep-2 cells): >100

5-Methyl-furan-2-carboxylic acid (2-oxo-5-phenyl-2,3-dihydro-1H-benzo[e][1,4]diazepin-3-yl)-amide [Example 161]
IC50 (RSV [1]): 2 µM | TC50 (2d) (Hep-2 cells): 100 µM | TC50 (6d) (Hep-2 cells): 60

COC(=O)NC1N=C(c2ccccc2)c2ccccc2NC1=O (stereo not drawn) [Example 181, (2-Oxo-5-phenyl-2,3-dihydro-1H-benzo[e][1,4]diazepin-3-yl)-carbamic acid methyl ester]
IC50 (RSV [1]; [3]): 9.6 µM | TC50 (6d) (Hep-2 cells): >50

O=C(Nc1cccs1)NC1N=C(c2ccccc2)c2ccccc2NC1=O (stereo not drawn) [Example 170, 1-(2-Oxo-5-phenyl-2,3-dihydro-1H-benzo[e][1,4]diazepin-3-yl)-3-thiophene-2-yl-urea]
IC50 (RSV [1]; [3]): 3.4 µM | TC50 (6d) (Hep-2 cells): >50

O=C(NC1N=C(c2ccccc2)c2ccccc2NC1=O)c1cccc2cc[nH]c12 (stereo not drawn) [Example 81a, 1H-Indole-7-carboxylic acid (2-oxo-5-phenyl-2,3-dihydro-1H-benzo[e][1,4]diazepin-3-yl)-amide]
IC50 (RSV [1]; [3]): 8.4 µM | TC50 (6d) (Hep-2 cells): 63

CN(C(=O)Nc1ccccc1F)C1N=C(c2ccccc2)c2ccccc2NC1=O (stereo not drawn) [Example 146, 3-(2-Fluoro-phenyl)-1-methyl-1-(2-oxo-5-phenyl-2,3-dihydro-1H-benzo[e][1,4]diazepin-3-yl)-urea]
IC50 (RSV [1]; [3]): 9.5 µM | TC50 (2d) (Hep-2 cells): > 50 µM

CCNC(=O)NC1N=C(c2ccccc2)c2ccccc2NC1=O (stereo not drawn) [Example 150, 1-Ethyl-3-(2-oxo-5-phenyl-2,3-dihydro-1H-benzo[e][1,4]diazepin-3-yl)-urea]
IC50 (RSV [1]; [3]): 2 µM | TC50 (2d) (Hep-2 cells): > 100 µM | TC50 (6d) (Hep-2 cells): >100

O=C(NC1N=C(c2ccccc2)c2ccccc2NC1=O)c1cccc2c1C(=O)c1ccccc1-2 (stereo not drawn) [Example 176, 9-Oxo-9H-fluorene-1-carboxylic acid (2-oxo-5-phenyl-2,3-dihydro-1H-benzo[e][1,4]diazepin-3-yl)-amide]
IC50 (RSV [1]; [3]): 4.3 µM | TC50 (6d) (Hep-2 cells): 99

COc1cccc(NC(=O)NC2N=C(c3ccccc3)c3ccccc3NC2=O)c1 (stereo not drawn) [Example 129, 1-(3-Methoxy-phenyl)-3-(2-oxo-5-phenyl-2,3-dihydro-1H-benzo[e][1,4]diazepin-3-yl)-urea]
IC50 (RSV [1]; [3]): 4.9 µM | TC50 (6d) (Hep-2 cells): >50

O=C(N[C@H]1N=C(c2ccccc2)c2ccccc2NC1=O)c1cc(F)c(F)cc1F [Example 79b, (S)-2,4,5-Trifluoro-N-(2-oxo-5-phenyl-2,3-dihydro-1H-benzo[e][1,4]diazepin-3-yl)-benzamide]
IC50 (RSV [1]; [3]): 5.8 µM | TC50 (6d) (Hep-2 cells): >50

Cc1ccc2c(c1)NC(=O)C(NC(=O)c1cccs1)N=C2c1ccccc1 (stereo not drawn) [Example 169, Thiophene-2-carboxylic acid (8-methyl-2-oxo-5-phenyl-2,3-dihydro-1H-benzo[e][1,4]diazepin-3-yl)-amide]
IC50 (RSV [1]; [3]): 5 µM | TC50 (2d) (Hep-2 cells): 50 µM | TC50 (6d) (Hep-2 cells): 30

O=C(NC1CCCCC1)NC1N=C(c2ccccc2)c2ccccc2NC1=O (stereo not drawn) [Example 149, 1-Cyclohexyl-3-(2-oxo-5-phenyl-2,3-dihydro-1H-benzo[e][1,4]diazepin-3-yl)-urea]
IC50 (RSV [1]; [3]): 1.5 µM | TC50 (2d) (Hep-2 cells): > 100 µM | TC50 (6d) (Hep-2 cells): >100

O=C(CC(O)c1ccccc1)NC1N=C(c2ccccc2)c2ccccc2NC1=O (stereo not drawn) [Example 145, 3-Hydroxy-N-(2-oxo-5-phenyl-2,3-dihydro-1H-benzo[e][1,4]diazepin-3-yl)-3-phenyl-propionamide]
IC50 (RSV [1]; [3]): 1.9 µM | TC50 (2d) (Hep-2 cells): > 50 µM

CN(C)c1ccc(C(=O)NC2N=C(c3ccccc3)c3ccccc3NC2=O)cn1 (stereo not drawn) [Example 174, 6-Dimethylamino-N-(2-oxo-5-phenyl-2,3-dihydro-1H-benzo[e][1,4]diazepin-3-yl)-nicotinamide]
IC50 (RSV [1]; [3]): 6.9 µM | TC50 (6d) (Hep-2 cells): 60

O=C(NC1N=C(c2ccccc2)c2ccccc2NC1=O)c1ccccc1F (stereo not drawn) [Example 135, 2-Fluoro-N-(2-oxo-5-phenyl-2,3-dihydro-1H-benzo[e][1,4]diazepin-3-yl)-benzamide]
IC50 (RSV [1]; [3]): 9.5 µM | TC50 (6d) (Hep-2 cells): >50

COc1cc([N+](=O)[O-])ccc1C(=O)N(C)C1N=C(c2ccccc2)c2ccccc2NC1=O (stereo not drawn) [Example 147, 2-Methoxy-N-methyl-4-nitro-N-(2-oxo-5-phenyl-2,3-dihydro-1H-benzo[e][1,4]diazepin-3-yl)-benzamide]
IC50 (RSV [1]; [3]): 15.9 µM | TC50 (2d) (Hep-2 cells): > 50 µM

COc1cc(S(C)(=O)=O)ccc1C(=O)NC1N=C(c2ccccc2)c2ccccc2NC1=O (stereo not drawn) [Example 75a, 4-Methanesulfonyl-2-methoxy-N-(2-oxo-5-phenyl-2,3-dihydro-1H-benzo[e][1,4]diazepin-3-yl)-benzamide]
IC50 (RSV [1]; [3]): 2.4 µM

COc1cc(C(=O)NC2N=C(c3ccccc3)c3ccccc3NC2=O)ccc1[N+](=O)[O-] (stereo not drawn) [Example 95, 3-Methoxy-4-nitro-N-(2-oxo-5-phenyl-2,3-dihydro-1H-benzo[e][1,4]diazepin-3-yl)-benzamide]
IC50 (RSV [2]): 1.5 µM | TC50 (2d) (Vero cells; Table 2, Examples 83 to 124, 2d): 100 | TC50 (6d) (Vero cells; Table 2, Examples 83 to 124, 6d): >100
